This note sets out measurements from ChEMBL document CHEMBL3045645, “Organophosphorus derivatives containing isatin-3-hydrazones as chemotherapeutants against fungal pathogens of sugarcane” (2008).

Assay type in all cases: functional
Holding throughout (conditions): 168 h, read-out: GI

The subject of experiment [1] is Curvularia pallescens. Description: Antifungal activity against Cochliobolus pallescens assessed as mycelial growth inhibition at 1000 ppm at 28 +/-2 degC after 7 days by food poison technique.
Experiment [2] has as its system Curvularia pallescens. Description: Antifungal activity against Cochliobolus pallescens assessed as mycelial growth inhibition at 100 ppm at 28 +/-2 degC after 7 days by food poison technique.
The test system of experiment [3] is Curvularia pallescens. Description: Antifungal activity against Cochliobolus pallescens assessed as mycelial growth inhibition at 10 ppm at 28 +/-2 degC after 7 days by food poison technique.
The subject of experiment [4] is Fusarium oxysporum. Description: Antifungal activity against Fusarium oxysporum assessed as mycelial growth inhibition at 1000 ppm at 28 +/-2 degC after 7 days by food poison technique.
Experiment [5] relates to Fusarium oxysporum. Description: Antifungal activity against Fusarium oxysporum assessed as mycelial growth inhibition at 100 ppm at 28 +/-2 degC after 7 days by food poison technique.
Experiment [6] deals with Fusarium oxysporum. Description: Antifungal activity against Fusarium oxysporum assessed as mycelial growth inhibition at 10 ppm at 28 +/-2 degC after 7 days by food poison technique.
In experiment [7] the test system is Colletotrichum falcatum. Description: Antifungal activity against Glomerella tucumanensis assessed as mycelial growth inhibition at 1000 ppm at 28 +/-2 degC after 7 days by food poison technique.
Experiment [8] has as its system Colletotrichum falcatum. Description: Antifungal activity against Glomerella tucumanensis assessed as mycelial growth inhibition at 100 ppm at 28 +/-2 degC after 7 days by food poison technique.
Experiment [9] has as its system Colletotrichum falcatum. Description: Antifungal activity against Glomerella tucumanensis assessed as mycelial growth inhibition at 10 ppm at 28 +/-2 degC after 7 days by food poison technique.

For `CCOP(=O)(OCC)O/C(=N\N=C1/C(=O)Nc2ccccc21)c1ccc(Cl)cc1`, the inhibition of growth at 1000 ppm in the experiment with Curvularia pallescens [1] is 71.2%; in the experiment on Fusarium oxysporum [4], 72.6%; in the experiment with Colletotrichum falcatum [7], 69.6%. In addition, the inhibition of growth at 100 ppm in the experiment on Curvularia pallescens [2] was determined as 62.4%; with Fusarium oxysporum [5], 67.8%; in the experiment with Colletotrichum falcatum [8] it was 64.2%. For the same molecule, the inhibition of growth at 10 ppm in the experiment on Curvularia pallescens [3] worked out at 51.6%; in the experiment with Fusarium oxysporum [6], 54.2%; in the experiment on Colletotrichum falcatum [9] it was 56.8%.

In the case of `CCOP(=O)(OCC)O/C(=N\N=C1/C(=O)Nc2ccccc21)c1ccc([N+](=O)[O-])cc1`, the results for the inhibition of growth at 1000 ppm with Curvularia pallescens [1], in the experiment with Fusarium oxysporum [4] and with Colletotrichum falcatum [7] were 51.8%, 56.2% and 54.2%, respectively. Further, the inhibition of growth at 100 ppm with Curvularia pallescens [2] was 38.6%; in the experiment with Fusarium oxysporum [5], 39.6%; in the experiment with Colletotrichum falcatum [8], 40.1%. For the same molecule, the inhibition of growth at 10 ppm came out at 26.8% in the experiment with Curvularia pallescens [3], 29.4% with Fusarium oxysporum [6] and 30.2% in the experiment on Colletotrichum falcatum [9].

Take `CCOP(=S)(OCC)O/C(=N\N=C1/C(=O)Nc2ccccc21)c1ccccc1`: the inhibition of growth at 1000 ppm in the experiment on Curvularia pallescens [1] was determined as 73.5%; in the experiment with Fusarium oxysporum [4], 74.2%; in the experiment on Colletotrichum falcatum [7], 70.8%. Moreover, the inhibition of growth at 100 ppm in the experiment with Curvularia pallescens [2] was determined as 65.8%; with Fusarium oxysporum [5], 69.2%; in the experiment with Colletotrichum falcatum [8], 65.1%. Also, the inhibition of growth at 10 ppm in the experiment on Curvularia pallescens [3] is 55.7%; in the experiment with Fusarium oxysporum [6], 55.2%; in the experiment on Colletotrichum falcatum [9] it was 58.2%.

With `CCOP(=S)(OCC)O/C(=N\N=C1/C(=O)Nc2ccccc21)c1ccc(Cl)cc1`, the inhibition of growth at 1000 ppm amounted to 85.8% in the experiment with Curvularia pallescens [1], 85.8% in the experiment with Fusarium oxysporum [4] and 88.6% with Colletotrichum falcatum [7]. Further, the figures for the inhibition of growth at 100 ppm with Curvularia pallescens [2], in the experiment on Fusarium oxysporum [5] and in the experiment with Colletotrichum falcatum [8] were 71.6%, 78.2% and 72.4%, respectively. The inhibition of growth at 10 ppm stood at 61.6% in the experiment on Curvularia pallescens [3], 68.6% with Fusarium oxysporum [6] and 60.5% in the experiment with Colletotrichum falcatum [9].

Consider `CCOP(=S)(OCC)O/C(=N\N=C1/C(=O)Nc2ccccc21)c1ccc([N+](=O)[O-])cc1`, for which the figures for the inhibition of growth at 1000 ppm in the experiment with Curvularia pallescens [1], with Fusarium oxysporum [4] and in the experiment with Colletotrichum falcatum [7] were 57.2%, 58.2% and 58.2%, respectively. Moreover, the inhibition of growth at 100 ppm in the experiment with Curvularia pallescens [2] was found to be 45.6%; in the experiment with Fusarium oxysporum [5] it was 47.2%; with Colletotrichum falcatum [8] it was 46.2%. Further, the inhibition of growth at 10 ppm with Curvularia pallescens [3] is 36.2%; in the experiment on Fusarium oxysporum [6], 40%; with Colletotrichum falcatum [9], 39.8%.

For the molecule `CCOP(=O)(OCC)O/C(=N\N=C1/C(=O)Nc2ccccc21)c1ccc(OP(=O)(OCC)OCC)cc1`, the inhibition of growth at 1000 ppm with Curvularia pallescens [1] is 67.8%; in the experiment with Fusarium oxysporum [4], 71.5%; with Colletotrichum falcatum [7] it was 69.2%. Further, the figures for the inhibition of growth at 100 ppm in the experiment on Curvularia pallescens [2], with Fusarium oxysporum [5] and in the experiment with Colletotrichum falcatum [8] were 51.7%, 58% and 62.4%, respectively. Further, the inhibition of growth at 10 ppm stood at 51.8% with Curvularia pallescens [3], 52.6% with Fusarium oxysporum [6] and 52.3% in the experiment on Colletotrichum falcatum [9].

As to `CCOP(=S)(OCC)O/C(=N\N=C1/C(=O)Nc2ccccc21)c1ccc(OP(=S)(OCC)OCC)cc1`, the inhibition of growth at 1000 ppm in the experiment on Curvularia pallescens [1] came to 81.4%; with Fusarium oxysporum [4] it was 82.4%; in the experiment with Colletotrichum falcatum [7], 87%. In addition, the inhibition of growth at 100 ppm with Curvularia pallescens [2] amounted to 66.2%; in the experiment on Fusarium oxysporum [5], 68.2%; with Colletotrichum falcatum [8] it was 68.2%. In addition, the inhibition of growth at 10 ppm turned out to be 56% with Curvularia pallescens [3], 57.1% with Fusarium oxysporum [6] and 58.2% in the experiment on Colletotrichum falcatum [9].

Turning to `CCOP(=O)(OCC)O/C(=N\N=C1/C(=O)Nc2ccccc21)c1ccccc1P(=O)(OCC)OCC`, the inhibition of growth at 1000 ppm in the experiment with Curvularia pallescens [1] turned out to be 65.6%; in the experiment with Fusarium oxysporum [4], 66.5%; in the experiment on Colletotrichum falcatum [7], 68.8%. For the same molecule, the inhibition of growth at 100 ppm came to 56.7% in the experiment on Curvularia pallescens [2], 56.2% in the experiment with Fusarium oxysporum [5] and 59.9% in the experiment on Colletotrichum falcatum [8]. Moreover, the inhibition of growth at 10 ppm worked out at 47.7% in the experiment on Curvularia pallescens [3], 49.8% in the experiment with Fusarium oxysporum [6] and 51.5% with Colletotrichum falcatum [9].

Take `CCOP(=S)(OCC)O/C(=N\N=C1/C(=O)Nc2ccccc21)c1ccccc1P(=S)(OCC)OCC`: the inhibition of growth at 1000 ppm in the experiment on Curvularia pallescens [1] amounted to 80.5%; in the experiment on Fusarium oxysporum [4], 82.8%; in the experiment on Colletotrichum falcatum [7] it was 86.6%. For the same molecule, the inhibition of growth at 100 ppm was determined as 64.2% with Curvularia pallescens [2], 66.5% in the experiment on Fusarium oxysporum [5] and 67.2% in the experiment on Colletotrichum falcatum [8]. Besides, the inhibition of growth at 10 ppm with Curvularia pallescens [3] is 54.2%; with Fusarium oxysporum [6], 55.2%; in the experiment on Colletotrichum falcatum [9], 57.6%.

Turning to `CCOP(=O)(OCC)O/C(COc1ccccc1)=N\N=C1/C(=O)Nc2ccccc21`, the inhibition of growth at 1000 ppm with Curvularia pallescens [1] was found to be 68.8%; in the experiment with Fusarium oxysporum [4], 69.6%; in the experiment with Colletotrichum falcatum [7], 70.2%. For the same molecule, the inhibition of growth at 100 ppm with Curvularia pallescens [2] came out at 58.2%; in the experiment on Fusarium oxysporum [5] it was 59.2%; in the experiment on Colletotrichum falcatum [8], 61.6%. Also, the figures for the inhibition of growth at 10 ppm in the experiment on Curvularia pallescens [3], with Fusarium oxysporum [6] and with Colletotrichum falcatum [9] were 50.1%, 50% and 51.2%, respectively.

For the molecule `CCOP(=O)(OCC)O/C(COc1ccc(Cl)cc1)=N\N=C1/C(=O)Nc2ccccc21`, the inhibition of growth at 1000 ppm in the experiment with Curvularia pallescens [1] was found to be 82.6%; in the experiment on Fusarium oxysporum [4], 85.6%; in the experiment on Colletotrichum falcatum [7], 80.2%. Further, the inhibition of growth at 100 ppm with Curvularia pallescens [2] is 71.8%; with Fusarium oxysporum [5] it was 74.2%; in the experiment on Colletotrichum falcatum [8] it was 71.6%. For the same molecule, the inhibition of growth at 10 ppm came out at 60.9% in the experiment with Curvularia pallescens [3], 61.8% in the experiment on Fusarium oxysporum [6] and 64.8% in the experiment with Colletotrichum falcatum [9].

Take `CCOP(=O)(OCC)O/C(COc1ccc([N+](=O)[O-])cc1)=N\N=C1/C(=O)Nc2ccccc21`: the inhibition of growth at 1000 ppm was 55.6% with Curvularia pallescens [1], 61.5% with Fusarium oxysporum [4] and 60.2% with Colletotrichum falcatum [7]. Moreover, the inhibition of growth at 100 ppm in the experiment on Curvularia pallescens [2] is 42.8%; with Fusarium oxysporum [5], 45.8%; in the experiment with Colletotrichum falcatum [8] it was 48.6%. The inhibition of growth at 10 ppm with Curvularia pallescens [3] turned out to be 34%; in the experiment on Fusarium oxysporum [6] it was 37.2%; in the experiment on Colletotrichum falcatum [9], 38.6%.

As for `CCOP(=S)(OCC)O/C(COc1ccccc1)=N\N=C1/C(=O)Nc2ccccc21`, the results for the inhibition of growth at 1000 ppm in the experiment on Curvularia pallescens [1], with Fusarium oxysporum [4] and with Colletotrichum falcatum [7] were 74.2%, 76.8% and 75.2%, respectively. The inhibition of growth at 100 ppm with Curvularia pallescens [2] came out at 62.7%; in the experiment with Fusarium oxysporum [5] it was 69.1%; in the experiment on Colletotrichum falcatum [8], 67%. The inhibition of growth at 10 ppm with Curvularia pallescens [3] turned out to be 52.6%; in the experiment on Fusarium oxysporum [6], 54%; in the experiment on Colletotrichum falcatum [9], 56.2%.

With `CCOP(=S)(OCC)O/C(COc1ccc([N+](=O)[O-])cc1)=N\N=C1/C(=O)Nc2ccccc21`, the inhibition of growth at 1000 ppm in the experiment with Curvularia pallescens [1] was found to be 65.6%; in the experiment with Fusarium oxysporum [4] it was 67.8%; in the experiment on Colletotrichum falcatum [7] it was 68.4%. Besides, the inhibition of growth at 100 ppm is 52.8% with Curvularia pallescens [2], 52.6% in the experiment on Fusarium oxysporum [5] and 56.2% in the experiment on Colletotrichum falcatum [8]. In addition, the figures for the inhibition of growth at 10 ppm in the experiment with Curvularia pallescens [3], in the experiment on Fusarium oxysporum [6] and in the experiment on Colletotrichum falcatum [9] were 40.6%, 44.6% and 48.2%, respectively.

As for `CCOP(=O)(OCC)O/C(COc1ccc(OP(=O)(OCC)OCC)cc1)=N\N=C1/C(=O)Nc2ccccc21`, the inhibition of growth at 1000 ppm came out at 76.4% in the experiment on Curvularia pallescens [1], 78.6% with Fusarium oxysporum [4] and 80.6% in the experiment with Colletotrichum falcatum [7]. Further, the inhibition of growth at 100 ppm in the experiment on Curvularia pallescens [2] came out at 70%; in the experiment on Fusarium oxysporum [5], 69.2%; in the experiment on Colletotrichum falcatum [8], 70.2%. The inhibition of growth at 10 ppm in the experiment with Curvularia pallescens [3] was determined as 62.8%; in the experiment with Fusarium oxysporum [6], 60.2%; in the experiment with Colletotrichum falcatum [9], 61.5%.

Consider `CCOP(=O)(OCC)O/C(COc1ccccc1P(=O)(OCC)OCC)=N\N=C1/C(=O)Nc2ccccc21`, for which the figures for the inhibition of growth at 1000 ppm with Curvularia pallescens [1], in the experiment on Fusarium oxysporum [4] and with Colletotrichum falcatum [7] were 71.2%, 74.2% and 78.2%, respectively. The inhibition of growth at 100 ppm was found to be 64.6% in the experiment on Curvularia pallescens [2], 64% in the experiment on Fusarium oxysporum [5] and 67.4% in the experiment on Colletotrichum falcatum [8]. In addition, the inhibition of growth at 10 ppm was 57.2% in the experiment on Curvularia pallescens [3], 58.6% with Fusarium oxysporum [6] and 60.2% with Colletotrichum falcatum [9].

With `CCOP(=S)(OCC)O/C(COc1ccccc1P(=S)(OCC)OCC)=N\N=C1/C(=O)Nc2ccccc21`, the inhibition of growth at 1000 ppm with Curvularia pallescens [1] came to 93.8%; in the experiment on Fusarium oxysporum [4] it was 92.8%; in the experiment with Colletotrichum falcatum [7] it was 95.6%. Moreover, the inhibition of growth at 100 ppm in the experiment with Curvularia pallescens [2] was 79.9%; in the experiment with Fusarium oxysporum [5] it was 80%; in the experiment with Colletotrichum falcatum [8], 81.2%. Moreover, the inhibition of growth at 10 ppm stood at 72.8% in the experiment on Curvularia pallescens [3], 71.6% in the experiment with Fusarium oxysporum [6] and 72.5% in the experiment on Colletotrichum falcatum [9].
